In this experiment the target is T1, human αVβ6 (Homo sapiens, UniProt P06756+P18564).
T1 construct: purchased R & D systems 3817-AV
Put plainly: human αVβ6 HTRF binding assay. The settings on record: recombinant human αVβ6 integrin, FITC-conjugated fibronectin. On the procedure: All binding assays used the HTRF (homogeneous time resolved fluorescence) technology from Cisbio International, therefore all assays are described as HTRF binding assays. The assay results for the Examples are listed above together with the characterization data. The HTRF binding assays are established for the following integrins: human αVβ6, human αVβ1, human αVβ3, human αVβ5, and human αVβ8. All assays used the following assay buffer: 20 mM Tris, pH 7.4, 1 mM MgCl2, 1 mM MnCl2, 0.01% Tween 20, and 0.01% BSA. Alternatively, a SPA-based assay was used for evaluation of receptor binding.
The following describes the components and a representative procedure for the human αVβ6 HTRF binding assay: Recombinant human αVβ6 Integrin (R & D systems, 3817-AV) was biotinylated. Biotinylated human αVβ6 Integrin was added to assay vessel at a final concentration of 1.25 nM. FITC-conjugated fibronectin (Cytoskeleton, FNR02) was then added at the final concentration of 5 nM. The mixture was centrifuged at 600 rpm for three minutes using Thermo Fisher Heraeus Multifuge X3 centrifuge and then incubated at RT for an hour. Streptavidin Terbium (Cisbio international 610STLB) was then added at the final concentration of 0.625 nM. The resulting mixture was centrifuged at 600 rpm for three minutes using Thermo Fisher Heraeus Multifuge X3 centrifuge and then incubated at room temperature overnight in dark before reading HTRF signals.
(TR-FRET usually uses a lanthanide donor and a delayed reading to cut background.)

Structures are written as SMILES.

T1 sequence (P06756 31-992 limits assumed): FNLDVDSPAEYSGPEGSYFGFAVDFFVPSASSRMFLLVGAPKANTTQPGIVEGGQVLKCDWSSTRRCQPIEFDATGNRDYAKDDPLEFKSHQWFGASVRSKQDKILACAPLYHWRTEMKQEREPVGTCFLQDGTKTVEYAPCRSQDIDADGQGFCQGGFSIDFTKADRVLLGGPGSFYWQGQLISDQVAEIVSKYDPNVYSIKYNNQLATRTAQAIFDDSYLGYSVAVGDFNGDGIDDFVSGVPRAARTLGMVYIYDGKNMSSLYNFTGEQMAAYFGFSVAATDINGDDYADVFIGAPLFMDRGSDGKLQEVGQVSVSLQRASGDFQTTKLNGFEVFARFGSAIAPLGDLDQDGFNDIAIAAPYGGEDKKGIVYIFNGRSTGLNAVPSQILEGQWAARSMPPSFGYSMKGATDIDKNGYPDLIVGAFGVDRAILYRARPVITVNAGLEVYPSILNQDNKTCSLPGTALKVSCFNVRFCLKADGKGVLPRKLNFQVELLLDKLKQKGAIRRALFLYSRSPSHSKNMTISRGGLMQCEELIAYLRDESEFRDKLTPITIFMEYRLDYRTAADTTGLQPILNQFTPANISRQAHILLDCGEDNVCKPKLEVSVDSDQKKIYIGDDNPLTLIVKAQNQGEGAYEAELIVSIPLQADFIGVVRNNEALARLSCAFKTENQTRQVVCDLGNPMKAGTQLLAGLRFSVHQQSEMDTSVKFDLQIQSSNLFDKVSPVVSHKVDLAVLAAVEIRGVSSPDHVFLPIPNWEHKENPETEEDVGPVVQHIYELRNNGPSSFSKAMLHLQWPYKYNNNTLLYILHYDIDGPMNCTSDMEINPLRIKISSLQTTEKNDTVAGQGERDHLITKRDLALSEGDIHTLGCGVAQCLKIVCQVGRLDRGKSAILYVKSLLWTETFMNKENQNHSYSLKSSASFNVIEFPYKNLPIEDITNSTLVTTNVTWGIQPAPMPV
T1 sequence (P18564 22-707 limits assumed): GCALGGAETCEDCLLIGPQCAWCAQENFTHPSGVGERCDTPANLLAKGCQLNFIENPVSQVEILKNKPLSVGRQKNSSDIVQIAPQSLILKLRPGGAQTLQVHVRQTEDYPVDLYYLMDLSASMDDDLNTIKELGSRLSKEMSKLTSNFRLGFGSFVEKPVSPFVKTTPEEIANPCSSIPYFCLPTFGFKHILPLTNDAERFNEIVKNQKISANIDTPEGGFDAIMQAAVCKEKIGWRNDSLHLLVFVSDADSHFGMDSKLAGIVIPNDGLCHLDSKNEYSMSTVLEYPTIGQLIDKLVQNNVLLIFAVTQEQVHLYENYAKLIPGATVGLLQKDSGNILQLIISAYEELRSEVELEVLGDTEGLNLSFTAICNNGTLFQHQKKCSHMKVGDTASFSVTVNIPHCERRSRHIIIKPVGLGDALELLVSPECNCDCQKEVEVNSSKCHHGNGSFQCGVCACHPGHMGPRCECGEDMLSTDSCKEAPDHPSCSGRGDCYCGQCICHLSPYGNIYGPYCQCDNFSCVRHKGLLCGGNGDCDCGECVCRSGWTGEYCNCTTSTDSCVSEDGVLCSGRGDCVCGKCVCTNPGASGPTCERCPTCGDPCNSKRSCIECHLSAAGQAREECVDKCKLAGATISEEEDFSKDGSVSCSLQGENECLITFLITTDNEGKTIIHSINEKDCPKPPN

One may read the IC50 as the concentration needed to halve the response being measured. For the molecule `COc1ccc(C(CC(=O)O)n2nccc2CCCc2ccc3c(n2)NCCC3)cc1F` (racemic) [Example 71, (±)-3-(3-fluoro-4-methoxyphenyl)-3-{5-[3-(5,6,7,8-tetrahydro-1,8-naphthyridin-2-yl)propyl]-1H-pyrazol-1-yl}propanoic acid], the IC50 came to 15 nM.
Consider `CN(C)C(=O)c1cncc(C(CC(=O)O)n2nccc2CCCc2ccc3c(n2)NCCC3)c1` (racemic) [Example 72, (±)-3-[5-(dimethylcarbamoyl)pyridin-3-yl]-3-{5-[3-(5,6,7,8-tetrahydro-1,8-naphthyridin-2-yl)propyl]-1H-pyrazol-1-yl}propanoic acid], for which the IC50 amounted to 24 nM.
For `COc1cc(C(CC(=O)O)n2nccc2CCCc2ccc3c(n2)NCCC3)ccn1` (racemic) [Example 73, (±)-3-(2-methoxypyridin-4-yl)-3-{5-[3-(5,6,7,8-tetrahydro-1,8-naphthyridin-2-yl)propyl]-1H-pyrazol-1-yl}propanoic acid], the IC50 came to 25 nM.
Then `CN(C)C(=O)c1cncc(C(CC(=O)O)n2ccc(CCCc3ccc4c(n3)NCCC4)n2)c1` (racemic) [Example 74, (±)-3-[5-(dimethylcarbamoyl)pyridin-3-yl]-3-{3-[3-(5,6,7,8-tetrahydro-1,8-naphthyridin-2-yl)propyl]-1H-pyrazol-1-yl}propanoic acid], with 13 nM; and `O=C(O)CC(c1cc(Cl)cc(Cl)c1)n1nccc1CCCc1ccc2c(n1)NCCC2` (racemic) [Example 75, (±)-3-(3,5-dichlorophenyl)-3-{5-[3-(5,6,7,8-tetrahydro-1,8-naphthyridin-2-yl)propyl]-1H-pyrazol-1-yl}propanoic acid], with 28 nM.
Turning to `O=C(O)CCCNc1cc(C(CC(=O)O)n2ccc(CCCc3ccc4c(n3)NCCC4)n2)ccn1` (racemic) [Example 76, (±)-4-{[4-(2-carboxy-1-{3-[3-(5,6,7,8-tetrahydro-1,8-naphthyridin-2-yl)propyl]-1H-pyrazol-1-yl}ethyl)pyridin-2-yl]amino}butanoic acid], the IC50 is 55 nM.
In the case of `COc1ncc(C(CC(=O)O)n2nccc2CCCc2ccc3c(n2)NCCC3)cc1F` (racemic) [Example 77, (±)-3-(5-fluoro-6-methoxypyridin-3-yl)-3-{5-[3-(5,6,7,8-tetrahydro-1,8-naphthyridin-2-yl)propyl]-1H-pyrazol-1-yl}propanoic acid] it was 18 nM.
As to `O=C(O)CCCNc1cc(C(CC(=O)O)n2nccc2CCCc2ccc3c(n2)NCCC3)ccn1` (racemic) [Example 79, (±)-4-{[4-(2-carboxy-1-{5-[3-(5,6,7,8-tetrahydro-1,8-naphthyridin-2-yl)propyl]-1H-pyrazol-1-yl}ethyl)pyridin-2-yl]amino}butanoic acid], the half-maximal inhibitory concentration (IC50) worked out at 300 nM.
For `Cc1ncc(C(CC(=O)O)n2ccc(CCCc3ccc4c(n3)NCCCC4)n2)cn1` (racemic) [Example 96, (±)-3-(2-methylpyrimidin-5-yl)-3-(3-(3-(6,7,8,9-tetrahydro-5H-pyrido[2,3-b]azepin-2-yl)propyl)-1H-pyrazol-1-yl)propanoic acid], the IC50 came out at 17 nM.
In the case of `Cc1ncc(C(CC(=O)O)n2nccc2CCCc2ccc3c(n2)NCCCC3)cn1` (racemic) [Example 99, (±)-3-(2-methylpyrimidin-5-yl)-3-(5-(3-(6,7,8,9-tetrahydro-5/Z-pyrido[2,3-b]azepin-2-yl)propyl)-1H-pyrazol-1-yl)propanoic acid] it was 410 nM.
For `COc1ccc(C(CC(=O)O)n2ccc(CCCc3ccc4c(n3)NCCCC4)n2)cn1` (racemic) [Example 100, (±)-3-(6-methoxypyridin-3-yl)-3-(3-(3-(6,7,8,9-tetrahydro-5H-pyrido[2,3-b]azepin-2-yl)propyl)-1H-pyrazol-1-yl)propanoic acid], the IC50 was determined as 6.4 nM.
In the case of `COc1ncc(C(CC(=O)O)n2ccc(CCCc3ccc4c(n3)NCCCC4)n2)cn1` (racemic) [Example 103, (±)-3-(2-methoxypyrimidm-5-yl)-3-(3-(3-(6,7,8,9-tetrahydro-5H-pyrido| 2,3-6 |azepin-2-yl)propyl)-1H-pyrazol-1-yl)propanoic acid] it was 30 nM; in that of `COc1ncc(C(CC(=O)O)n2nccc2CCCc2ccc3c(n2)NCCCC3)cn1` (racemic) [Example 106, (±)-3-(2-methoxypyrimidin-5-yl)-3-(5-(3-(6,7,8,9-tetrahydro-5H-pyrido[2,3-b]azepin-2-yl)propyl)-1H-pyrazol-1-yl)propanoic acid], 820 nM; in that of `COc1cncc(C(CC(=O)O)n2ccc(CCCc3ccc4c(n3)NCCCC4)n2)c1` (racemic) [Example 107, (±)-3-(5-methoxypyridin-3-yl)-3-(3-(3-(6,7,8,9-tetrahydro-5H-pyrido[2,3-b]azepin-2-yl)propyl)-1H-pyrazol-1-yl)propanoic acid], 4.9 nM.
As to `COc1cncc(C(CC(=O)O)n2nccc2CCCc2ccc3c(n2)NCCCC3)c1` (racemic) [Example 108, (±)-3-(5-methoxypyridin-3-yl)-3-(5-(3-(6,7,8,9-tetrahydro-5H-pyrido[2,3-b]azepin-2-yl)propyl)-1H-pyrazol-1-yl)propanoic acid], the IC50 worked out at 170 nM.
`COc1ccc(C(CC(=O)O)n2ccc(CCCc3ccc4c(n3)NCCC4)n2)cn1` (single isomer, unassigned) [Example 4, 3-(6-Methoxypyridin-3-yl)-3-(3-(3-(5,6,7,8-tetrahydro-1,8-naphthyridin-2-yl)propyl)-1H-pyrazol-1-yl)propanoic acid]: the concentration for half-maximal inhibition (IC50) was 210 nM.
Then `COc1ccc(C(CC(=O)O)c2nc(CCCCc3ccc4c(n3)NCCC4)cs2)cn1` (single isomer, unassigned) [Example 13, 3-(6-Methoxypyridin-3-yl)-3-(4-(4-(5,6,7,8-tetrahydro-1,8-naphthyridin-2-yl)butyl)thiazol-2-yl)propanoic acid], with 77 nM.
In the case of `COc1ccc(C(CC(=O)O)c2nc(CCCc3ccc4c(n3)NCCC4)cs2)cn1` (single isomer, unassigned) [Example 16, 3-(6-Methoxypyridin-3-yl)-3-(4-(3-(5,6,7,8-tetrahydro-1,8-naphthyridin-2-yl)propyl)thiazol-2-yl)propanoic acid] it was 36 nM.
In the case of `COc1ccc(C(CC(=O)O)c2ncc(CCCCc3ccc4c(n3)NCCC4)s2)cn1` (single isomer, unassigned) [Example 17, 3-(6-Methoxypyridin-3-yl)-3-(5-(4-(5,6,7,8-tetrahydro-1,8-naphthyridin-2-yl)butyl)thiazol-2-yl)propanoic acid] it was 16 nM; in that of `COc1ccc(C(CC(=O)O)c2ncc(CCCCc3ccc4c(n3)NCCC4)s2)cn1` (single isomer, unassigned) [Example 18, 3-(6-Methoxypyridin-3-yl)-3-(5-(4-(5,6,7,8-tetrahydro-1,8-naphthyridin-2-yl)butyl)thiazol-2-yl)propanoic acid], 6.7 nM; in that of `COc1ccc(C(CC(=O)O)c2ncc(CCCc3ccc4c(n3)NCCC4)s2)cn1` (single isomer, unassigned) [Example 19, 3-(6-Methoxypyridin-3-yl)-3-(5-(3-(5,6,7,8-tetrahydro-1,8-naphthyridin-2-yl)propyl)thiazol-2-yl)propanoic acid], 44 nM.
In the case of `COc1ccc(C(CC(=O)O)c2ncc(CCCc3ccc4c(n3)NCCC4)s2)cn1` (single isomer, unassigned) [Example 20, 3-(6-Methoxypyridin-3-yl)-3-(5-(3-(5,6,7,8-tetrahydro-1,8-naphthyridin-2-yl)propyl)thiazol-2-yl)propanoic acid], the IC50 came to 18 nM.
In the case of `COc1ccc(C(CC(=O)O)c2nc(CCCCc3ccc4c(n3)NCCC4)cs2)cc1F` (single isomer, unassigned) [Example 36, 3-(3-Fluoro-4-methoxyphenyl)-3-(4-(4-(5,6,7,8-tetrahydro-1,8-naphthyridin-2-yl)butyl)thiazol-2-yl)propanoic acid], the IC50 was determined as 157 nM.
Consider `COc1ccc(C(CC(=O)O)c2nc(CCCc3ccc4c(n3)NCCC4)cs2)cc1F` (single isomer, unassigned) [Example 39, 3-(3-Fluoro-4-methoxyphenyl)-3-(4-(3-(5,6,7,8-tetrahydro-1,8-naphthyridin-2-yl)propyl)thiazol-2-yl)propanoic acid], for which the IC50 came out at 23 nM.
For the molecule `COc1ccc(C(CC(=O)O)c2ncc(CCCCc3ccc4c(n3)NCCC4)s2)cc1F` (single isomer, unassigned) [Example 41, (3-Fluoro-4-methoxyphenyl)-3-(5-(4-(5,6,7,8-tetrahydro-1,8-naphthyridin-2-yl)butyl)thiazol-2-yl)propanoic acid], the concentration for half-maximal inhibition (IC50) came to 5.9 nM.
With `COc1ccc(C(CC(=O)O)c2ncc(CCCc3ccc4c(n3)NCCC4)s2)cc1F` (single isomer, unassigned) [Example 42, 3-(3-Fluoro-4-methoxyphenyl)-3-(5-(3-(5,6,7,8-tetrahydro-1,8-naphthyridin-2-yl)propyl)thiazol-2-yl)propanoic acid], the IC50 came to 28 nM.
Turning to `COc1ccc(C(CC(=O)O)c2ncc(CCCc3ccc4c(n3)NCCC4)s2)cc1F` (single isomer, unassigned) [Example 43, 3-(3-Fluoro-4-methoxyphenyl)-3-(5-(3-(5,6,7,8-tetrahydro-1,8-naphthyridin-2-yl)propyl)thiazol-2-yl)propanoic acid], the IC50 amounted to 18 nM.

Source of the values: patent publication US11884661B2, “3-substituted propionic acids as αV integrin inhibitors” (BRISTOL-MYERS SQUIBB COMPANY, priority 2016, dated 2024).
